Patent US10858360B2, “Tricyclic gyrase inhibitors” (priority 2011, dated 2020)
≈ marks a conversion by molar mass, not a printed value. Like-named read-outs stand apart in the source and are kept apart here.

Experiments:
S. aureus ATCC 13709 = experiment: MIC, S. aureus ATCC 13709 (Alamar Blue broth microdilution); assay type: cell-based; conditions: for MIC: Staphylococcus aureus, ATCC13709, S. aureus
E. coli ATCC 25922 = experiment: MIC, E. coli ATCC 25922; assay type: cell-based; conditions: for MIC: Escherichia coli, ATCC25922, E. coli
[1] = Alamar Blue read after overnight incubation at 35° C.
[2] = S. aureus, Alamar Blue read after overnight incubation at 35° C.
[3] = E. coli, Alamar Blue read after overnight incubation at 35° C.

Structure (SMILES)	MIC (S. aureus ATCC 13709; [1]) [µg/mL]	MIC (E. coli ATCC 25922; [1]) [µg/mL]	also measured
CNc1cccc2c1[nH]c1nc(Sc3cnc4ccc[n+]([O-])c4c3)nc(N3CC(N)C4(CC4)C3)c12 (stereo not shown) [1.40]	≤ 0.5	1 (≈ 2.06 µM)	
CNc1cc(F)cc2c1[nH]c1nc(Oc3cnc(OC)nc3)nc(N3C[C@H](N)C4(CC4)C3)c12 [4.433]	≤ 0.5	≤ 0.5	
CNc1cc(F)cc2c1[nH]c1nc(Oc3cncc(OC)c3)nc(N3C[C@H](N)C4(CC4)C3)c12 [4.165]	≤ 0.5	1 (≈ 2.22 µM)	
CNc1ncnc2c1[nH]c1nc(Oc3cnc(C)nc3)nc(N3CC(N)C4(CC4)C3)c12 (stereo not shown) [7.08]	16 (≈ 38.2 µM)	> 64	
CNc1cccc2c1[nH]c1nc(Oc3cncnc3)nc(-c3cn[nH]c3)c12 [3.9]	2 (≈ 5.58 µM)	32 (≈ 89.3 µM)	
CNc1cc(F)cc2c1[nH]c1nc(Oc3cncc(-c4nnnn4C)c3)nc(N3CC[C@@H](N)C3)c12 [4.169]	2 (≈ 4.21 µM)	8 (≈ 16.8 µM)	
CNc1cccc2c1[nH]c1nc(Sc3cnc4ccc[n+]([O-])c4c3)nc(N3C[C@@H]4[C@H](C3)[C@@]4(N)C(N)=O)c12 [1.19]	> 64	> 64	
CNc1cccc2c1[nH]c1nc(Sc3cc4ncccc4[n+]([O-])c3)nc(N3C[C@@H]4[C@@H](N)[C@@H]4C3)c12 [1.31]	≤ 0.5	≤ 0.5	
CNc1cccc2c1[nH]c1nc(Oc3cncc(F)c3)nc(N3CC4CNC4C3)c12 (stereo not shown) [3.7]	1 (≈ 2.47 µM)	4 (≈ 9.87 µM)	
CNc1cccc2c1[nH]c1nc(Oc3cncc(C#N)c3)nc(N3CCN(CCN)CC3)c12 [3.55]	64 (≈ 144 µM)	> 64	
CNc1cccc2c1[nH]c1nc(Sc3cnc4cccnc4c3)nc(N3C[C@@H](N)C[C@H]3C)c12 [1.60]	0.5 (≈ 1.1 µM)	2 (≈ 4.38 µM)	
CNc1cc(F)cc2c1[nH]c1nc(Oc3cnc(C4CC4)nc3)nc(N3CC4CC4(CN)C3)c12 (stereo not shown) [4.246]	≤ 0.5	≤ 0.5	
CNc1cc(F)cc2c1[nH]c1nc(Oc3ccc(C#N)nc3)nc(N3CCC(N)C3)c12 (stereo not shown) [4.331]			MIC Sa (S. aureus ATCC 13709; [2]): ≤0.5 µg/mL; MIC Ec (E. coli ATCC 25922; [3]): ≤0.5 µg/mL
CCOC(=O)C1CN(c2nc(Oc3cnc(C)nc3)nc3[nH]c4c(NC)cc(F)cc4c23)CC1N (stereo not shown) [4.140]			MIC Sa (S. aureus ATCC 13709; [2]): ≤0.5 µg/mL; MIC Ec (E. coli ATCC 25922; [3]): 2 µg/mL (≈ 4.16 µM)
CNc1cc(F)cc2c1[nH]c1nc(Oc3ccc4c(c3)C(=O)NCC4)nc(N3CC4C[C@@H](N)C4C3)c12 (stereo partly shown) [4.302]	≤ 0.5	2 (≈ 4.1 µM)	
CNc1cc(F)cc2c1[nH]c1nc(Oc3cnc(N4CCOCC4)nc3)nc(N3CCC(CN)C3)c12 (stereo not shown) [4.215]	≤ 0.5	4 (≈ 8.1 µM)	

Structure (SMILES)	MIC (S. aureus ATCC 13709; [1]) [µg/mL]	MIC (E. coli ATCC 25922; [1]) [µg/mL]	also measured
CNc1cc(F)cc2c1[nH]c1nc(Oc3cncnc3)nc(N3C4CCC3CC(N)C4)c12 (stereo not shown) [4.025]	≤ 0.5	2 (≈ 4.6 µM)	
CNc1cc(F)cc2c1[nH]c1nc(Oc3cnc4ccoc4c3)nc(N3CC4CCC(N)C4C3)c12 (stereo not shown) [4.293]			MIC Sa (S. aureus ATCC 13709; [2]): ≤0.5 µg/mL; MIC Ec (E. coli ATCC 25922; [3]): 1 µg/mL (≈ 2.11 µM)
CNc1cc(F)cc2c1[nH]c1nc(Oc3cnc(CC(=O)OC)nc3)nc(N3CC4C[C@@H](N)C4C3)c12 (stereo partly shown) [4.367]	≤ 0.5	≤ 0.5	
CNc1cccc2c1[nH]c1nc(Sc3cnc4ccc[n+]([O-])c4c3)nc(N3CCC4(CC4N)C3)c12 (stereo not shown) [1.38]	≤ 0.5	2 (≈ 4.13 µM)	
CNc1cccc2c1[nH]c1nc(Oc3cncnc3)nc(N3CCN(CCN)CC3)c12 [3.56]	> 64	> 64	
CNc1cc(Cl)cc2c1[nH]c1nc(Oc3cnc(N)nc3)nc(N3CC4C(N)C4C3)c12 (stereo not shown) [6.17]			MIC Sa (S. aureus ATCC 13709): ≤0.5 µg/mL; MIC Ec (E. coli ATCC 25922): ≤0.5 µg/mL
COc1cccc2c1[nH]c1nc(Oc3cncnc3)nc(N3CCC(NC(C)=O)C3)c12 (stereo not shown) [2.11]			MIC Sa (S. aureus ATCC 13709; [2]): 4 µg/mL (≈ 9.54 µM); MIC Ec (E. coli ATCC 25922; [3]): >64 µg/mL
CNc1cc(F)cc2c1[nH]c1nc(Oc3cnc(C)nc3)nc(N3CC4CC3CC4N)c12 (stereo not shown) [4.130]			MIC Sa (S. aureus ATCC 13709; [2]): ≤0.5 µg/mL; MIC Ec (E. coli ATCC 25922; [3]): ≤0.5 µg/mL
CNc1cc(F)cc2c1[nH]c1nc(Oc3ccc4c(N)nc(C)nc4c3)nc(N3CC4C(N)C4C3)c12 (stereo not shown) [4.288]			MIC Sa (S. aureus ATCC 13709; [2]): 4 µg/mL (≈ 8.24 µM); MIC Ec (E. coli ATCC 25922; [3]): >16 µg/mL
CNc1cccc2c1[nH]c1nc(Oc3cnc(C)nc3)nc(N3CC4C(N)C4C3)c12 (stereo not shown) [3.29]	≤ 0.5	≤ 0.5	
CNc1cccc2c1[nH]c1nc(Oc3cncnc3)nc(N3CCN(CCN4CCOCC4)CC3)c12 [3.60]	8 (≈ 16.3 µM)	> 64	
CNc1cc(F)cc2c1[nH]c1nc(Oc3cncc(F)c3)nc(N3CC4C(N)C4C3)c12 (stereo not shown) [4.055]	≤ 0.5	≤ 0.5	
CNc1cc(F)cc2c1[nH]c1nc(Oc3cnc(SC)nc3)nc(N3CC4CCC(N)C4C3)c12 (stereo not shown) [4.200]			MIC Sa (S. aureus ATCC 13709; [2]): ≤0.5 µg/mL; MIC Ec (E. coli ATCC 25922; [3]): ≤0.5 µg/mL
CNc1cc(F)cc2c1[nH]c1nc(Sc3cnc4cccnc4c3)nc(N3CC4C(N)C4C3)c12 (stereo not shown) [1.51]	≤ 0.5	≤ 0.5	
CNc1cccc2c1[nH]c1nc(Oc3cnc(C)nc3)nc(N3CC4C(C3)C4NCC3CC3)c12 (stereo not shown) [3.14]	≤ 0.5	2 (≈ 4.38 µM)	
CNc1cccc2c1[nH]c1nc(Oc3cncc(C#N)c3)nc(N3CCC(CN)C3)c12 (stereo not shown) [3.57]	1 (≈ 2.41 µM)	8 (≈ 19.3 µM)	
